We go through 18 molecules from patent publication US20040087653A1, “Methods for the treatment of respiratory diseases and conditions with a selective iNOS inhibitor and a PDE inhibitor and compositions therefor” (priority 2002, published 2004).

In general, pIC50 refers to −log10 of the IC50, conventionally taken in molar units. As usually defined, the ED50 is the dose at which the effect has come halfway, by size or by number of responders. The melting point is the temperature of the solid-liquid transition.

Data set [1] deals with nitrite production in human cartilage explants. The data set can be described thus: Human cartilage explant assay (IL-1 induced nitrite production). The format is cell-based. To be noted: inhibition of nitrite production, IL-1 stimulated explants. On the procedure: Bone pieces are rinsed twice with Dulbecco's Phosphate Buffered Saline (GibcoBRL) and once with Dulbecco's Modified Eagles Medium (GibcoBRL) and placed into a petri dish with phenol red free Minimum Essential Medium (MEM) (GibcoBRL). Cartilage was cut into small explants of approximately 15-45 mg in weight and one or two explants per well are placed into either 96 or 48 well culture plates with 200-500 μL of culture media per well. The culture media was either a custom modification of Minimum Essential Medium(Eagle) with Earle's salts (GibcoBRL) prepared without L-Arginine, without L-Glutamine and without phenol red or a custom modification of serumless Neuman and Tytell (GibcoBRL) medium prepared without L-arginine, without insulin, without ascorbic acid, without L-glutamine and without phenol red. Both are supplemented before use with 100 μM L-Arginine (Sigma), 2 mM L-glutamine, 1× HL-1 supplement (BioWhittaker), […] ascorbic acid (Sigma) and 150 pg/ml recombinant human IL-1[…] (RD Systems) to induce nitric oxide synthase. Compounds are then added in 10 μL aliquots and the explants incubated at 37° C. with 5% CO2 for 18-24 hours. The day old supernatant is then discarded and replaced with fresh culture media containing recombinant human IL-1β and compound and incubated for another 20-24 hours. […] All samples are done in quadruplicate. Unstimulated controls are cultured in media in the absence of recombinant human IL-1 □. IC50 values (Table II) are determined from plotting the percent inhibition of nitrite production at six different concentrations of inhibitor.

Data set [2] addresses i-NOS (Homo sapiens, UniProt P35228). Kind of data set: i-NOS inhibition, comparison with NIL amides.
In data set [3] the test system is LPS-induced increase in plasma nitrite/nitrate levels. Kind of data set: In vivo assay: plasma nitrite/nitrate in endotoxin-treated rats. To be noted: oral administration, plasma nitrite/nitrate 5 hours post-treatment. The protocol: Plasma nitrite/nitrate levels can be determined 5 hours post-treatment.
Data set [4] has as its system exhaled NO. Particulars: high doses; cited from earlier work.
Data set [5] relates to human primary airway epithelial cells. Kind of data set: Nitrite in media of cytokine-stimulated human primary airway epithelial cells. The format is cell-based. To be noted: cells cultured 24 h with 50 ng/ml IL-1β, TNF-α and IFN-γ; read-out: IC50, inhibition of the increase in nitrite in the media. On the procedure:
Human primary airway epithelial cell cultures: Human primary airway epithelial cells were cultured as described previously (see Donnelly,L. E. and Barnes,P. J. Am J Respir Cell Mol.Biol 24:295-303 (2000)), and the amount of nitrite, the stable oxidation product of NO, in the cell culture media was measured using a modification of the spectrofluorometric method of Misko et al., Anal. Biochem. 4:11-16 (1993).
The protein was evenly distributed throughout the cytoplasm in basal cells but clearly located beneath the cilia in the columnar, ciliated cells. Treatment of airway epithelial cells with 50 ng/ml of IL-1β, TNF-α and IFN-γ (cytomix) for 24 h caused an induction of iNOS protein and an increase in the accumulation of nitrite in cell culture media from 2.20±0.2 μM in the absence of cytomix, to 3.5±0.4 μM in the presence of cytomix.
Media was harvested and measured for nitrite content (FIG. 1). Cellular proteins were resolved on 3-8% tris-acetate polyacrylamide gels and immunoblotted for iNOS protein (FIG. 2).

Data set [6] concerns iNOS protein expression in human primary airway epithelial cells. Kind of data set: Western blotting of iNOS from cultured epithelial cells. The format is cell-based. Particulars: cytokine-stimulated cells, various concentrations. On the procedure: Western blotting of iNOS from cultured epithelial cells: Following incubation with the cytokine mixture alone or with various concentrations of L-NIL, epithelial cells were lysed in 50 mM Tris/HCl, pH 7.4, containing 0.25 mM ethylene diaminotetraacetic acid, 0.5 mM phenylmethylsulfonyl fluoride, 5 μg/ml antipain, 5 μg/ml leupeptin and 5 μg/ml benzaminidine. The protein concentration was determined using the BioRad protein assay kit according to the manufacturer's instructions. Cell proteins were solubilized in sodium dodecyl sulfate polyacrylamide gel electrophoresis sample buffer ([…] Tris/HCl, pH 6.8, containing 10% v/v glycerol, 1% w/v SDS, 1% w/v β-mercaptoethanol, and 0.01% w/v bromophenol blue). The proteins (15 μg per lane) were resolved by electrophoresis in 3-8% (w/v) Tris-acetate SDS-polyacrylamide gels and transferred to Hybond-Enhanced Chemi-luminescence (ECL) nitro-cellulose membranes. Equal protein loading was determined by staining the blot with 0.1% (w/v) Ponceau S in 5% (v/v) acetic acid. The nitro-cellulose was then blocked overnight at 4° C. in 0.5M Tris-HCl,pH 7.4, containing 3% (w/v) normal goat serum, 1% (w/v) bovine serum albumin and 0.05% (v/v) Tween-20. […]
Media was harvested and measured for nitrite content (FIG. 1). […]
(In western blotting, separated proteins are transferred to a membrane and probed.)

Data set [7] relates to T1, PDE IV.
T1 construct: other: Hatzelmann et al. 2001
To be noted: Hatzelmann et al. 2001; cited from earlier work.

Data set [8] relates to PDE I. Particulars: Hatzelmann et al. 2001; cited from earlier work.
Data set [9] relates to PDE IV. The data set can be described thus: PDE IV inhibition (Hatzelmann et al.).
Protocol: PDE inhibition is then determined by the presence or absence of substrate degradation products. […] The relative ability of an inhibitory compound to slow or prevent the degradation of tritiated cyclic nucleotides is one test that is indicative of how well the compound in question selects one or more of each isoform to inhibit.
In practice, the in vitro selectivity of a PDE IV inhibitor may vary depending upon the condition under which the test is performed and on the inhibitors being tested. However, for the purposes of this specification, the selectivity of a PDE IV inhibitor can be measured as a ratio of the in vitro IC50 value for inhibition of any other isoform of the phosphodiesterase enzyme (Z) other than PDE IV, divided by the IC50 value for inhibition of PDE IV (PDE Z IC50/PDE IV IC50), where Z identifies any PDE other than PDE IV.
The target in data set [10] is PDE V (Homo sapiens, UniProt O76074). To be noted: printed only as numerator of 8/0.0008; cited from earlier work.
Where [11] appears, read: Rattus norvegicus, read-out: ED50.

Molecules are shown by their SMILES. pIC50: −log10 of the molar value. Where a name gives a salt, the structure may show the parent alone. Read-outs that look alike come from different tables or passages of the source.

Sequence of i-NOS (P35228 whole entry): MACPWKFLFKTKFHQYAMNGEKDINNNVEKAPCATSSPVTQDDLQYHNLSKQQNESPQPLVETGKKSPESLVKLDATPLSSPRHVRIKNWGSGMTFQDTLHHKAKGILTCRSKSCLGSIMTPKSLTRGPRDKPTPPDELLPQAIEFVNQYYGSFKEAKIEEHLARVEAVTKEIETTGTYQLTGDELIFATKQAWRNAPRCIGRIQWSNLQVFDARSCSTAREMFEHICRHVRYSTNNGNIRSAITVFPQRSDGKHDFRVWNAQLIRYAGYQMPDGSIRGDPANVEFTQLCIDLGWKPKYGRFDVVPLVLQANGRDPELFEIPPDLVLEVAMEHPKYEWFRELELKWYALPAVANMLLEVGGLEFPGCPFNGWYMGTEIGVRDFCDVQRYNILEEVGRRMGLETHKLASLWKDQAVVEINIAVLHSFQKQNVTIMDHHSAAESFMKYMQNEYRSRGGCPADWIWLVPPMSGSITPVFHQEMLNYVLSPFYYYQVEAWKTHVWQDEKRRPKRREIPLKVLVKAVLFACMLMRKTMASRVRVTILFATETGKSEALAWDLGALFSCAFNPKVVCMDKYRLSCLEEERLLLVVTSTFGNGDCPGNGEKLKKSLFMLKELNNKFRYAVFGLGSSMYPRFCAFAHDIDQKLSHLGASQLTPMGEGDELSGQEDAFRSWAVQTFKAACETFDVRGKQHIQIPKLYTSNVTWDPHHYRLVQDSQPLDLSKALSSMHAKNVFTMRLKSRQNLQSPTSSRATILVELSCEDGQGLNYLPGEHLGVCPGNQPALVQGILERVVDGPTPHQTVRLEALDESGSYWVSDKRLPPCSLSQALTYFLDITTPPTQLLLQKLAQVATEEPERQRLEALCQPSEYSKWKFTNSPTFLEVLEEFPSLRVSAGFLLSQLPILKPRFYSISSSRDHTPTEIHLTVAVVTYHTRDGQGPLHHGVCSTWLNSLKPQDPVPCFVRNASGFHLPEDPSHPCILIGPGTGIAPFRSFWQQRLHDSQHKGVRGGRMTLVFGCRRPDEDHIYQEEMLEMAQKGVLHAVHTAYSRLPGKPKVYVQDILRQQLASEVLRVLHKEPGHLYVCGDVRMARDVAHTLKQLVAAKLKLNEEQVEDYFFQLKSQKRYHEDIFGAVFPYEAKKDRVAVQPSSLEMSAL

On to `CC(=N)NCC(F)=CCC[C@H](N)C(=O)O` (mixture of isomers) [Example B, (2S,5E/Z)-2-amino-6-fluoro-7-[(1-iminoethyl)amino]-5-heptenoic acid, dihydrochloride], for which, in [1] (Homo sapiens), the pIC50 was 6.70.

For the molecule `CC(=N)NCCCC[C@H](N)C(=O)Nc1nnn[nH]1` [Example 1, 2S-amino-6-[(1-iminoethyl)amino]-N-(1H-tetrazol-5-yl)hexanamide, hydrate, dihydrochloride], the “selectivity compared with NIL amide or NIL dimethylamide” value in data set [2] is “more selective”.

With `CC(=N)NC/C(F)=C\CC[C@H](N)C(=O)O` [Example A, (2S,5E)-2-amino-6-fluoro-7-[(1-iminoethyl)amino]-5-heptenoic acid, dihydrochloride], the ED50 in data set [3] (setting [11]) and in data set [3] (dihydrochloride) was less than 0.1 mg/kg each time. Further, the pIC50 in data set [1] (Homo sapiens) was 7.00.

`CC(=N)NC/C(F)=C/CC[C@H](N)C(=O)O` [Example D, (2S,5Z)-2-amino-6-fluoro-7-[(1-iminoethyl)amino]-5-heptenoic acid, trihydrochloride, dihydrate]: the ED50 in data set [3] (setting [11]) was more than 10 mg/kg. In addition, the pIC50 in data set [1] (Homo sapiens) is 5.60.

Turning to `CC(=NO)NC/C(F)=C\CC[C@H](N)C(=O)O` [Example G, (2S,5E)-2-amino-6-fluoro-7-[(1-hydroximinoethyl)amino]-5-heptenoic acid], the melting point lay in the range of 198 to 200 °C. Moreover, in data set [3] (setting [11]), the ED50 is less than 0.1 mg/kg.

Consider `CC(=N)NC/C(F)=C\CC[C@H](N)C(=O)Nc1nnn[nH]1` [Example H, (2S,5E)-2-amino-6-fluoro-7-[(1-iminoethyl)amino]-N-(1H-tetrazol-5-yl) 5-heptenamide, dihydrochloride], for which, in data set [3] (setting [11]), the ED50 was less than 0.3 mg/kg.

`CC(=N)NC/C(F)=C\CC[C@](C)(N)C(=O)O.Cl.Cl` [Example HH, (2S,5E)-2-amino-2-methyl-6-fluoro-7-[(1-iminoethyl)amino]-5-heptenoic acid, dihydrochloride]: in [3] (setting [11]), the median effective dose (ED50) amounted to 0.4 mg/kg. Besides, the pIC50 in data set [1] (Homo sapiens) is 6.40.

The molecule `COC[C@](N)(CSCCNC(C)=N)C(=O)O` [Example J, 2-[[[2-[(1-Iminoethyl)amino]ethyl]thio]methyl]-O-methyl-D-serine, dihydrochloride] gave a pIC50 in [1] of 5.09.

As for `CC(=N)NC/C=C\CC[C@](C)(N)C(=O)O.Cl.Cl` [Example LL, (2S,5Z)-2-amino-2-methyl-7-[(1-iminoethyl)amino]-5-heptenoic acid, dihydrochloride], the ED50 in data set [3] (setting [11]) amounted to 0.3 mg/kg. The pIC50 in [1] (Homo sapiens) was 6.10.

Turning to `N=C1CCCC[C@H](CCCC[C@@H](N)C(=O)O)N1` [Example V, (α,2S)-.α-aminohexahydro-7-imino-1H-azepine-2-hexanoic acid, trihydrate hydrochloride], in [3] (setting [11]), the ED50 was less than 3 mg/kg. Also, the pIC50 in data set [1] (Homo sapiens) is more than 5.00.

For the molecule `N=C1CCCC[C@@H](CCCC[C@H](N)C(=O)O)N1` [Example W, (αS,2R)-α-aminohexahydro-7-imino-1H-azepine-2-hexanoic acid, trihydrate hydrochloride], in data set [1] (Homo sapiens), the pIC50 is less than 4.52.

`N=C1CCCC[C@H](CCCC[C@H](N)C(=O)O)N1` [Example X, (αS,2S)-α-aminohexahydro-7-imino-1H-azepine-2-hexanoic acid, trihydrate hydrochloride]: the pIC50 in data set [1] was more than 5.00.

Consider `Cl.N=C1CCCC[C@H](CCCC[C@@H](N)C(=O)O)N1.O.O.O` [Example Y, (αR,2S)-α-aminohexahydro-7-imino-1H-azepine-2-hexanoic acid, trihydrate hydrochloride], for which, in data set [3] (setting [11]), the ED50 was less than 3 mg/kg.

As to `N=C1CCCC[C@H](CCCC[C@H](N)C(=O)O)N1` [Example Z, (αS,2S)-α-aminohexahydro-7-imino-1H-azepine-2-hexanoic acid, trihydrate hydrochloride], in [1] (Homo sapiens), the pIC50 is more than 5.00.

`COC(=O)[C@@H](N)CCCNC(=N)N[N+](=O)[O-]` [L-NAME]: the “inhibition of exhaled NO” value in [4] is given as “approximately 70%”.

`CC(=N)NCCCC[C@H](N)C(=O)O` [L-NIL]: the pIC50 in data set [5] was approximately 5.24. Moreover, the “effect on iNOS expression as detected by immunoblotting” value in data set [6] is “did not affect iNOS expression”.

With `N=C(N)NN` [amino-guanidine], the “inhibition of exhaled NO” value in data set [4] was “approximately 70%”.

For `O=C(Nc1c(Cl)cncc1Cl)c1ccc(OC(F)F)c(OCC2CC2)c1` [roflumilast], the pIC50 in [7] was 9.10; in data set [8], less than 5.00; in [10], 5.10. For the same molecule, the “selectivity for PDE IV as compared with PDE I” value in [9] (PDE I IC50/PDE IV IC50) is “at least 12,500”. Besides, the “selectivity for PDE IV as compared with PDE V” value in [9] (PDE V IC50/PDE IV IC50) is listed as “at least 10,000”.
